Data set [1] has as its system K562 cells. Nature of the data set: Immunoblotting of p-H2AXγ (DNA damage). The conditions noted are these: K562, 10-20 µM, 4 h. (In general: Immunoblotting shows a protein as a band on a membrane.)
Procedure: (§4) (A) K562 cells were treated with 0, 0.5, 1, 5, 10, 15, and 20 uM of T60 or 0, 0.5, 1, 5, 10, 15, 20, 50, and 100 uM of T637 and T638 for 24, 48, or 72 h. […] (B) NCI-H446 small cell lung cancer line and Hela cervical cancer line were treated with 0, 0.5, 1, 5, 10, 15, and 20 uM of T60 or 0, 0.5, 1, 5, 10, 15, 20, 50, and 100 uM of T637 and T638 for five days. Cell growth rates were measured by using Incucyte^TM. (C) K562 cells were treated with 0, 5, 10, 15, and 20 uM of T60, T637, or T638 for 48 h. Cytotoxicity was evaluated by measuring the LDH levels from the culture media. (D) K562 cells were treated with the vehicle or 10–20 µM of etoposide, T60, T637, or T638 for 4 h. Immunoblotting measured p-H2AXγ levels in cells with vinculin as a loading control.
The test system of data set [2] is salmon sperm DNA. The data set can be described thus: Ethidium bromide displacement assay. Format: binding. The conditions noted are these: 100 µg/mL salmon sperm DNA, 2 µg/mL ethidium bromide. The method, then: (§1) (A) Ethidium bromide displacement assays were performed by mixing 100 µg/mL salmon sperm DNA with −/+2 µg/mL ethidium bromide and the indicated compounds. Reactions were subjected to fluorescence emission of 590 nm and excitation of 535 nm. Obtained signals were detected by using the Multimode Microplate Reader (Infinite F500). […] Reactions were subjected to 5–20% LED/excitation power and medium MST power using premium capillaries. Obtained signals were detected by using the Monolith NT.115 system. The change in thermophoresis is expressed as the change in the normalized fluorescence (ΔFnorm). MST assays were repeated with two control compounds, enzalutamide (Enza) and merbarone.

Data set [3] relates to small cell lung cancer line NCI-H446. The data set can be described thus: NCI-H446 cell growth (Incucyte). The conditions noted are these: Homo sapiens, NCI-H446, 120 h, read-out: Cell growth inhibition.
Procedure: as §4
For data set [4], the target named is T1, human TOP2A(431-1193) (Homo sapiens, UniProt P11388).
T1 construct: 6xHis (N); made in house; host or cells: E. coli BL21 (DE3)
Nature of the data set: Microscale thermophoresis (MST) binding assay. The settings on record: 5 nM NT647-labelled TOP2A(431-1193), 0.015-500 µM compound; read-out: Kd, direct TOP2-compound binding (MST). The method, then:
It was transformed into BL21 (DE3) E. coli cells and induced by 0.5 mM IPTG for 16 h at 16 °C. Cells were lysed by sonication and protein purification was by chromatography with the Ni-NTA beads (Invitrogen), followed by a size exclusion chromatography (Superdex 200). […] A serial dilution of the inhibitors was prepared with 100% DMSO and subsequently mixed with the labeled fluorescent protein in the assay buffer (20 mM Tris pH 8.0, 100 mM NaCl, 0.1% NP40, 0.2 mM TCEP, and 0.1 mM PMSF) at the final concentrations of 0.015–500 uM. The final concentration of the protein was 5 nM. The labeled protein and small molecules mix were allowed to incubate in the dark at room temperature for 5 min before filling the capillaries. MST assays were performed with 5–20% LED/excitation power and medium MST power using premium capillaries for Monolith NT.115. The data for the estimation of Kd were analyzed using MO Affinity Analysis software from Nanotemper.
as §1
Background: Microscale thermophoresis detects binding through changes in fluorescence in a small temperature gradient.

Data set [5] is described as follows: Crystal formation (precipitation) in cell cultures. In kind it is physicochemical. The conditions noted are these: up to 100 uM. The method, then:
Both T637 and T638 have improved solubility in aqueous solution and culture media compared to T60 (Figure 1). […] When cells are growing in the culture media and treated with T60 at concentrations ≥50 uM for two days, T60 will form crystals, likely due to the altered pH values by the cells that induce T60 precipitation. […] These improvements in solubility allow higher doses of compounds to be used to treat cancer cells to reach maximum tumor suppression.

The target in data set [6] is full-length TOP2B (Homo sapiens, UniProt Q02880). Nature of the data set: EMSA, full-length TOP2B with 5ZRF DNA oligo. Format: binding. The settings on record: 200 µM compound, 300 nM protein, 100 nM oligo. Also on record: EMSA was performed by purified full-length TOP2A or TOP2B proteins. The method, then: (§2) (A) EMSA was performed by purified full-length TOP2A or TOP2B proteins at a contraction of 300 nM with IRDay700 labeled 5ZRF DNA oligo at a concentration of 100 nM in the presence of −/+200 µM of ICRF193, T60, T637, and T638. […] Reactions were subjected to fluorescence […], which were detected by using the Multimode Microplate Reader (Infinite F500). (D) DNA cleavage assays were performed using full-length human TOP2A and TOP2B incubated with the supercoiled pHOT plasmid in the presence of 200 µM of etoposide plus 1, 100, or 200 µM of ICRF193, T60, T637, and T638. Reactions were separated on a DNA gel with ethidium bromide. All experiments were repeated three times, and one representative image was shown. Note: N, nicked DNA; L, linear DNA; and SC, supercoiled DNA.

The target of data set [7] is T1, human TOP2A(431-1193). The data set can be described thus: Fluorescence polarization (FP) assay of TOP2A-DNA interaction. Format: binding. The conditions noted are these: 500 nM protein, 0.01-200 µM compound. The method, then: Fluorescent polarization assay was performed in Corning® Low Volume 384-well Black Flat Bottom microplate. […] Triplicate reactions were transferred onto the microplate and incubated at room temperature for 20 min. Fluorescence polarization (FP) measurements were taken by Tecan Infinite F500 with the excitation wavelength of 485 nm and emission wavelength of 535 nm.
as §2

Data set [8] deals with TOP2A (Homo sapiens, UniProt P11388). The data set can be described thus: K-DNA decatenation assay, TOP2A. Format: biochemical. The conditions noted are these: 0.01-200 uM, three biological repeats. The method, then:
Figure 2 T637 and T638 are TOP2A inhibitors. (A) K-DNA decatenation assays and (B) supercoiled plasmid DNA relaxation assays are used to measure TOP2A enzyme activity in the presence of 0.01–200 uM T637 or T638. Three biological repeats were performed with each concentration of the compounds, and the densitometry of the D-DNA bands from (A) and the SC bands from (B) was used to establish an inhibition curve for IC50 calculation.

A short description of data set [9]: Solubility by LC/MS/MS. In kind it is physicochemical. The conditions noted are these: kinetic from dmso stock. The method, then: Stock solutions of the tested compounds at 50 mM in dimethyl sulfoxide (DMSO) were diluted 50-fold in methanol (MeOH), Roswell Park Memorial Institute-1640 (RPMI1640), plus 5% charcoal-stripped serum (CSS) from Sigma-Aldrich (media) and phosphate-buffered saline (PBS), and vortexed at room temperature for 1 h at 800 rpm. The resulting solutions were centrifuged at 20,000× g for 5 min, and the saturated supernatants were diluted 40-fold in acetonitrile. The resultant solutions were subjected to LC/MS/MS to determine the solubility.

For data set [10], the system named is K562 cells. The data set can be described thus: Cytotoxicity by LDH release. The settings on record: K562, 0-20 uM, 48 h. For orientation: Release of lactate dehydrogenase indicates damage to the cell membrane.
Procedure: as §4
Data set [11] addresses T2, TOP2B (Homo sapiens, UniProt Q02880). The data set can be described thus: K-DNA decatenation assay, TOP2B. In kind it is biochemical. The conditions noted are these: 0.01-200 uM, three biological repeats. The method, then:
(§3) Figure 3 T637 and T638 are TOP2B inhibitors. (A) K-DNA decatenation assays and (B) supercoiled plasmid DNA relaxation assays are used to measure TOP2B activity in the presence of 0.01–200 uM T637 or T638. Three biological repeats were performed with each concentration of the compounds, and the densitometry of the D-DNA bands from (A) and the SC bands from (B) was used to establish an inhibition curve for IC50 calculation.

The target of data set [12] is T2, TOP2B. Nature of the data set: Supercoiled plasmid DNA relaxation assay, TOP2B. In kind it is biochemical. The conditions noted are these: 0.01-200 uM, three biological repeats. The method, then: as §3

Data on one molecule can be found in PMC8345109, “Optimization of New Catalytic Topoisomerase II Inhibitors as an Anti-Cancer Therapy” (Cancers, 2021).

The inhibition is the percentage by which the read-out fell short of the control. As a reminder, the Kd is the constant that tells how readily two partners part at equilibrium. Usually IC50 stands for the concentration at which inhibition is half-maximal.

In brackets after ≈: the same amount, converted by molar mass. Read-outs that look alike come from different tables or passages of the source.

T1 sequence (P11388 431-1193): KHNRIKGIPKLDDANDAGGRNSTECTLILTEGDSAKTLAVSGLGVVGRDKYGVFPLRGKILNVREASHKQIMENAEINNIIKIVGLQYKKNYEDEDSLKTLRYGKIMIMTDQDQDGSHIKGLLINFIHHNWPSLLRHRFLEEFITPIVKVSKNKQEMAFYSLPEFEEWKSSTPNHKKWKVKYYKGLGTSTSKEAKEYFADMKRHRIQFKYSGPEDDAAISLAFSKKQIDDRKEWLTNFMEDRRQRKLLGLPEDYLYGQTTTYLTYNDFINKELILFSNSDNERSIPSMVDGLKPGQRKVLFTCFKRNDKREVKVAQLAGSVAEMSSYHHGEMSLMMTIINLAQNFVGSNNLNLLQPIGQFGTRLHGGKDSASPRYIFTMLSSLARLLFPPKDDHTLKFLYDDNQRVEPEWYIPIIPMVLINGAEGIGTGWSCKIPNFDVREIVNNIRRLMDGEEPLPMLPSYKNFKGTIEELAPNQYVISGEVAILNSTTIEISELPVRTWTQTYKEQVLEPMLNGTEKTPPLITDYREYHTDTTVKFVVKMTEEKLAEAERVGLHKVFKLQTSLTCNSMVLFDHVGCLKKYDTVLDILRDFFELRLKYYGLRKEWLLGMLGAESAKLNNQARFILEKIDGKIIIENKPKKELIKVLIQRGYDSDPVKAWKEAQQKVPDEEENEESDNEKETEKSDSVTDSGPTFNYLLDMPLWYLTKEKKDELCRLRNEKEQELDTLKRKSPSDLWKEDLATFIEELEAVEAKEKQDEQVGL
T2 sequence (Q02880 whole entry): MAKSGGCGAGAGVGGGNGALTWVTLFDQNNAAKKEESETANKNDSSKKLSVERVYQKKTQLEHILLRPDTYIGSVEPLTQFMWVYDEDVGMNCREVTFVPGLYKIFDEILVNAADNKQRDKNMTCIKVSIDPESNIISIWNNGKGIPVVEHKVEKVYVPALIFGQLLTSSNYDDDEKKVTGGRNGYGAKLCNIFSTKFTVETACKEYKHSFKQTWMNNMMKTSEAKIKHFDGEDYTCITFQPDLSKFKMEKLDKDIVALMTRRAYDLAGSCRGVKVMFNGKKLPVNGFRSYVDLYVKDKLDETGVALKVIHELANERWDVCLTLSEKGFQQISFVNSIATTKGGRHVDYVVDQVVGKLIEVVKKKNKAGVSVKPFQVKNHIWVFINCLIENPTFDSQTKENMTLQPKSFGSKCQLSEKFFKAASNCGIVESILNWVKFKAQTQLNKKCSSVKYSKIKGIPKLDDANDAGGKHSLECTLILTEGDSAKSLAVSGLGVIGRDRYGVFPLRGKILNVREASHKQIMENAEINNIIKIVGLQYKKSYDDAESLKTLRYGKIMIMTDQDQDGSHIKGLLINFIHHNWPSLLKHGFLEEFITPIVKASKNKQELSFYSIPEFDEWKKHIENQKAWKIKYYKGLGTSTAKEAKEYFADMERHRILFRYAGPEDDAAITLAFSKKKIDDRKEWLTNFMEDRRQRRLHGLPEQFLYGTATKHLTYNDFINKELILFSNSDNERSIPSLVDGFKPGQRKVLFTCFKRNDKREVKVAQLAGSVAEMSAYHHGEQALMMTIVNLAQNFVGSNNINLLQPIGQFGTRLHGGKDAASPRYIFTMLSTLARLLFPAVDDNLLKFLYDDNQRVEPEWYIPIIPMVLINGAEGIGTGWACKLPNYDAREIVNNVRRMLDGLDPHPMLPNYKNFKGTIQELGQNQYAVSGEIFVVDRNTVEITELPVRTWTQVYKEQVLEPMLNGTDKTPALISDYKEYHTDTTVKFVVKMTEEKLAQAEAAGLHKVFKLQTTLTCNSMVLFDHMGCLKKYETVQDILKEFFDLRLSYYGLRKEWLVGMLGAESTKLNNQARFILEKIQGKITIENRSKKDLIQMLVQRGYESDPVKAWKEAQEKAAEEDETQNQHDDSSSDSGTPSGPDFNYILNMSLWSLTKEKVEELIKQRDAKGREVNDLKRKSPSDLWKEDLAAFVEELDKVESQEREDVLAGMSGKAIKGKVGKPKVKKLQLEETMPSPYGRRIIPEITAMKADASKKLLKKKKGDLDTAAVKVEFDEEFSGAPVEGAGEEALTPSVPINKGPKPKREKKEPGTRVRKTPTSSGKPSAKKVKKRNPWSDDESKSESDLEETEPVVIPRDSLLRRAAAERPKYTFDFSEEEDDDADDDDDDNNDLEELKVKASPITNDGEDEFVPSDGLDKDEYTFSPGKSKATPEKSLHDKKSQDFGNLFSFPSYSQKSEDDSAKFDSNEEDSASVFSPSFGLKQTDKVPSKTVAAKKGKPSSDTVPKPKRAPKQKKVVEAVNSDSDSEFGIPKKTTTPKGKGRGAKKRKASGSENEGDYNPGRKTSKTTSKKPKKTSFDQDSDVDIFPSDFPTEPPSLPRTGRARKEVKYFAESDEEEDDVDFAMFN
Chain of TOP2A (P11388 whole entry): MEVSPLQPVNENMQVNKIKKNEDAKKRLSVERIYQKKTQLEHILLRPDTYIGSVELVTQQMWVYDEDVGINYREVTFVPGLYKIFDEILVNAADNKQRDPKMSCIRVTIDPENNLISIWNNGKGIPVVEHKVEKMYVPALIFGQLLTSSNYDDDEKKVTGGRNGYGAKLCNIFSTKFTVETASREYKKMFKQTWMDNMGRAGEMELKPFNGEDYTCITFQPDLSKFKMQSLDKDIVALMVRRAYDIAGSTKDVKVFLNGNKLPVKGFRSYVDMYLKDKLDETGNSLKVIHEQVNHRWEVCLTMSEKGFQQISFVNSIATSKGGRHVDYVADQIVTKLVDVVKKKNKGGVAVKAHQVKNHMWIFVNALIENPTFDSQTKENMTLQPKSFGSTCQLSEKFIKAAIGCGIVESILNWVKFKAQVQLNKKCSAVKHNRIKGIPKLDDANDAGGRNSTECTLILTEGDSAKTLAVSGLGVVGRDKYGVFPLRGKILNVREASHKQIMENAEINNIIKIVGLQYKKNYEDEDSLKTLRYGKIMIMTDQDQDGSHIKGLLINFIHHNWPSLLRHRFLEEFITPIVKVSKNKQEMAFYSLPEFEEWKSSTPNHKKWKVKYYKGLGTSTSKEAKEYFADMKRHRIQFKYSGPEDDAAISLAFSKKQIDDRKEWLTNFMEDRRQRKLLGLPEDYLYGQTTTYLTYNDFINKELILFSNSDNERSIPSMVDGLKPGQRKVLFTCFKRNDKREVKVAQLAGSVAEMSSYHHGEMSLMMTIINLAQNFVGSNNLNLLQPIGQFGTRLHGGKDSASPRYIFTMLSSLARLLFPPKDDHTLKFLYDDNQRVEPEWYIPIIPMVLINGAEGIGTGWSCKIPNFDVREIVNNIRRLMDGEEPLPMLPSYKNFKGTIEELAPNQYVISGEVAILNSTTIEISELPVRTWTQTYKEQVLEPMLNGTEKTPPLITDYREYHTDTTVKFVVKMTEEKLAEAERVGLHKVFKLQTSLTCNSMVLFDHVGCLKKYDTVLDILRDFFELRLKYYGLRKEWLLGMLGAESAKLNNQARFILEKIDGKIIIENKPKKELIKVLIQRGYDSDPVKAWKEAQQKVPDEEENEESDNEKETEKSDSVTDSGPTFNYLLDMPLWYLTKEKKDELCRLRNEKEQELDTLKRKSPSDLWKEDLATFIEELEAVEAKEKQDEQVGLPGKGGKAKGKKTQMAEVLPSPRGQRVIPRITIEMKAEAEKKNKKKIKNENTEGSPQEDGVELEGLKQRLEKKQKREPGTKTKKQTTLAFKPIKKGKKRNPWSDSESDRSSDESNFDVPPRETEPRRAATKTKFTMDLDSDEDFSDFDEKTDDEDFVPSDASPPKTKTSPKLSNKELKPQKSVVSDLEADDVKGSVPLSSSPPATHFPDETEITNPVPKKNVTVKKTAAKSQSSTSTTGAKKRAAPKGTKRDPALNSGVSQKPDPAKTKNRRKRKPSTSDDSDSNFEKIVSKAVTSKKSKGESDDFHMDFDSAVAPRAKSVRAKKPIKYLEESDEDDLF
Chain of full-length TOP2B (Q02880 whole entry): as the sequence (Q02880 whole entry) above

Take `Nc1cc(Nc2ccccc2)ccc1NC(=O)c1ccc[nH]c1=S` [T638]: the “Intracellular DNA damage (phospho-H2AXγ protein levels)” value in data set [1] is “do not cause intracellular DNA damage”. Further, the “Fluorescence induced by the ethidium bromide/DNA complex reduced by increasing doses (DNA intercalation)” value in [2] is listed as “not”. Moreover, the inhibition at 100 µM in [3] is 100%. The Kd in data set [4] is approximately 87 µM. In data set [5], the “Crystal formation in cell cultures, in words” value was “no crystal formation”. Further, the “Block of TOP2B-DNA oligo complex formation (EMSA)” value in data set [6] is given as “block”. Moreover, in [7], the “Effect on TOP2A-DNA interaction (FP)” value is on record as “reduced the TOP2A–DNA interaction in a dose-dependent manner”. For the same molecule, the results for the IC50 in data set [8], in data set [11] and in data set [12] were approximately 0.7 µM, approximately 3.8 µM and 7.5 µM, respectively. In addition, the solubility at 1 h in data set [9] (RPMI1640 plus 5% charcoal-stripped serum, plasma or biological fluid, cell culture media with serum, read-out: Solubility Media/FBS) was 485 µM; in [9] (methanol, organic solvent or mixture, methanol, read-out: Solubility Methanol), more than 1000 µM; in [9] (phosphate-buffered saline, aqueous buffer, PBS, read-out: Solubility PBS) it was 142 µM (≈ 47.8 µg/mL). Moreover, the “Cytotoxicity (LDH release), in words” value in [10] is recorded as “not observed”.
